# Laboratory results taken from ChEMBL document CHEMBL4840359, “N-Terminus to Arginine Side-Chain Cyclization of Linear Peptidic Neuropeptide Y Y4 Receptor Ligands Results in Picomolar Binding Constants” (J Med Chem, 2021).
# How the values were obtained:
# [1] = Inhibition of ACE (unknown origin); set-up: species or system Homo sapiens
# [2] = target: T1, Neuropeptide Y receptor type 4 (Homo sapiens, UniProt P50391); test: Displacement of [3H]UR-KK200 from human neuropeptide Y Y4 receptor expressed in CHO-mtAEQ cells co-expressing Gqi5 measured after 90 mins by scintillation counting analysis; assay type: cell-based
# [3] = target: T1, Neuropeptide Y receptor type 4; test: Displacement of [3H]UR-KK200 from human neuropeptide Y Y4 receptor expressed in CHO-mtAEQ cells co-expressing Gqi5 assessed as fold change in affinity measured after 90 mins by scintillation counting analysis relative to Ac-Arg-Tyr-Arg-Leu-Arg-Tyr-NH2; assay type: cell-based; details: filed as agonist
# [4] = target: T2, Neuropeptide Y receptor type 1 (Homo sapiens, UniProt P25929); test: Displacement of [3H]UR-MK299 from human neuropeptide Y Y1 receptor in human SK-N-MC cells measured after 90 mins by scintillation counting analysis; assay type: cell-based
# T2 sequence (P25929 whole entry): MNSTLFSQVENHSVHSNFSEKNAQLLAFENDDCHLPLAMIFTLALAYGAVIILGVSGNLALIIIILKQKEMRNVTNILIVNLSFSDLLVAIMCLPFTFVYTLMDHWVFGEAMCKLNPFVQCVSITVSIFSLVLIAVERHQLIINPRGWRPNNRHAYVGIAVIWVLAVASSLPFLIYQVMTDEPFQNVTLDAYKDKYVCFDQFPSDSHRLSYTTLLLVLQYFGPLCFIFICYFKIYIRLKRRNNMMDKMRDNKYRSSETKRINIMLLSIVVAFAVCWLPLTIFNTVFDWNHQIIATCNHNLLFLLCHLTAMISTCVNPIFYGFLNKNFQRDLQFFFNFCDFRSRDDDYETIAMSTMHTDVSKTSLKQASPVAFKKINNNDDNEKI
# [5] = target: T3, Neuropeptide Y receptor type 2 (Homo sapiens, UniProt P49146); test: Displacement of [3H]UR-MK299 from human neuropeptide Y Y2 receptor expressed in CHO cells measured after 90 mins by scintillation counting analysis; assay type: cell-based
# T3 sequence (P49146 whole entry): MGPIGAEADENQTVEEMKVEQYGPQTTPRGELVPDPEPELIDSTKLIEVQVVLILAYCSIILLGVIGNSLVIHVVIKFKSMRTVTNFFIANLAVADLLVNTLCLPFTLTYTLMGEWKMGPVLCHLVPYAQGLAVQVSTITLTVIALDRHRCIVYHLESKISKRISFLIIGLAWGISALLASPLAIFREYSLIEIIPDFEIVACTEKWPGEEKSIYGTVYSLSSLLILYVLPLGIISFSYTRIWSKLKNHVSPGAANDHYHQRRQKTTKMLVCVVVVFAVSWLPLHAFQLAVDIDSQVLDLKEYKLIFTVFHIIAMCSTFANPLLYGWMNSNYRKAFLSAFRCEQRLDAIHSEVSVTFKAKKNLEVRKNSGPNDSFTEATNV
# [6] = target: T4, Neuropeptide Y receptor type 5 (Homo sapiens, UniProt Q15761); test: Displacement of [3H]propionyl-pNPY from human neuropeptide Y Y5 receptor in human HEC-1B cells measured after 90 mins by scintillation counting analysis; assay type: cell-based, HEC-1B cell line
# T4 sequence (Q15761 whole entry): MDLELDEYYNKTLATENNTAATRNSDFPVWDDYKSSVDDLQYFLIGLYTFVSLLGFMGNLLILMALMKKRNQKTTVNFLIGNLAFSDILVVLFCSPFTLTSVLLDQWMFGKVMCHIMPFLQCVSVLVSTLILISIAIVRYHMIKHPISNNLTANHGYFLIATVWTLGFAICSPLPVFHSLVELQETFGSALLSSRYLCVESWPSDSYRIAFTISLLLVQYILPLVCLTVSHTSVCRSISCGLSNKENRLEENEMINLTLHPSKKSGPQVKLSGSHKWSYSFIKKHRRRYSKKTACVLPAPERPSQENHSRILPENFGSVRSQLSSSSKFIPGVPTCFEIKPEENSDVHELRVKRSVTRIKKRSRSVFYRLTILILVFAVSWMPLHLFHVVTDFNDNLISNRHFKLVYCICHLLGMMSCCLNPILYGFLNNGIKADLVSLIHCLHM
# [7] = species on record: Homo sapiens; test: Selectivity ratio, Ki for displacement of [3H]UR-MK299 from human neuropeptide Y Y1 receptor in human SK-N-MC cells measured after 90 mins by scintillation counting analysis to Ki for displacement of [3H]UR-KK200 from human neuropeptide Y Y4 receptor expressed in CHO-mtAEQ cells co-expressing Gqi5 measured after 90 mins by scintillation counting analysis; assay type: cell-based
# [8] = species on record: Homo sapiens; test: Selectivity ratio, Ki for displacement of [3H]UR-MK299 from human neuropeptide Y Y2 receptor expressed in CHO cells measured after 90 mins by scintillation counting analysis to Ki for displacement of [3H]UR-KK200 from human neuropeptide Y Y4 receptor expressed in CHO-mtAEQ cells co-expressing Gqi5 measured after 90 mins by scintillation counting analysis; assay type: cell-based
# [9] = species on record: Homo sapiens; test: Selectivity ratio, Ki for displacement of [3H]propionyl-pNPY from human neuropeptide Y Y5 receptor in human HEC-1B cells measured after 90 mins by scintillation counting analysis to Ki for displacement of [3H]UR-KK200 from human neuropeptide Y Y4 receptor expressed in CHO-mtAEQ cells co-expressing Gqi5 measured after 90 mins by scintillation counting analysis; assay type: cell-based
# [10] = target: T1, Neuropeptide Y receptor type 4; test: Agonist activity at human neuropeptide Y Y4 receptor expressed in HEK293T-ARRB1 cells assessed as stimulation of beta-arrestin 1 recruitment by multimode plate reader; assay type: functional, cell-based; details: read-out: EC50
# [11] = target: T1, Neuropeptide Y receptor type 4; test: Intrinsic activity at human neuropeptide Y Y4 receptor expressed in HEK293T-ARRB1 cells assessed as stimulation of beta-arrestin 1 recruitment by multimode plate reader relative to hPP; assay type: functional, cell-based
# [12] = target: T1, Neuropeptide Y receptor type 4; test: Agonist activity at human neuropeptide Y Y4 receptor expressed in HEK293T-ARRB2 cells assessed as stimulation of beta-arrestin 2 recruitment by multimode plate reader; assay type: functional, cell-based
# [13] = target: T1, Neuropeptide Y receptor type 4; test: Intrinsic activity at human neuropeptide Y Y4 receptor expressed in HEK293T-ARRB2 cells assessed as stimulation of beta-arrestin 2 recruitment by multimode plate reader relative to hPP; assay type: functional, cell-based
# [14] = target: T1, Neuropeptide Y receptor type 4; test: Agonist activity at human neuropeptide Y Y4 receptor expressed in CHO-mtAEQ cells co-expressing Gqi5 by calcium aequorin assay; assay type: functional, cell-based
# [15] = target: T1, Neuropeptide Y receptor type 4; test: Intrinsic activity at human neuropeptide Y Y4 receptor expressed in CHO-mtAEQ cells co-expressing Gqi5 by calcium aequorin assay; assay type: functional, cell-based
# [16] = target: T1, Neuropeptide Y receptor type 4; test: Agonist activity at human neuropeptide Y Y4 receptor expressed in HEK293T cells co-expressing CRE-controlled gene reporter firefly luciferase assessed as relative luminescence measured after 15 mins; assay type: functional, cell-based
# [17] = target: T1, Neuropeptide Y receptor type 4; test: Intrinsic activity at human neuropeptide Y Y4 receptor expressed in HEK293T cells co-expressing CRE-controlled gene reporter firefly luciferase assessed as relative luminescence measured after 15 mins relative to hPP; assay type: functional, cell-based
# [18] = Stability of the compound in pH 7.4 PBS buffer measured up to 48 hrs by reversed-phase HPLC analysis; assay type: physicochemical; details: pH 7.4, 48 h
# [19] = Stability in human plasma assessed as intact peptide measured after 30 mins at 37 degC by RP-HPLC analysis; assay type: ADME, cell-free; details: read-out: Stability
# [20] = Stability in human plasma assessed as intact peptide measured after 1 hr at 37 degC by RP-HPLC analysis; assay type: ADME, cell-free; details: read-out: Stability
# [21] = Stability in human plasma assessed as intact peptide measured after 2 hr at 37 degC by RP-HPLC analysis; assay type: ADME, cell-free; details: read-out: Stability
# [22] = Stability in human plasma assessed as intact peptide measured after 6 hr at 37 degC by RP-HPLC analysis; assay type: ADME, cell-free; details: read-out: Stability
# [23] = Stability in human plasma assessed as half life at 37 degC by RP-HPLC analysis; assay type: ADME, cell-free
# [24] = Stability in human plasma assessed as intact peptide in presence of rami-pril measured at 50 uM after 24 hrs at 37 degC by LC-HRMS analysis; assay type: ADME, cell-free
# [25] = Stability in human plasma assessed as intact peptide measured after 24 hrs at 37 degC by RP-HPLC analysis; assay type: ADME, cell-free; details: read-out: Stability
# T1 sequence (P50391 whole entry): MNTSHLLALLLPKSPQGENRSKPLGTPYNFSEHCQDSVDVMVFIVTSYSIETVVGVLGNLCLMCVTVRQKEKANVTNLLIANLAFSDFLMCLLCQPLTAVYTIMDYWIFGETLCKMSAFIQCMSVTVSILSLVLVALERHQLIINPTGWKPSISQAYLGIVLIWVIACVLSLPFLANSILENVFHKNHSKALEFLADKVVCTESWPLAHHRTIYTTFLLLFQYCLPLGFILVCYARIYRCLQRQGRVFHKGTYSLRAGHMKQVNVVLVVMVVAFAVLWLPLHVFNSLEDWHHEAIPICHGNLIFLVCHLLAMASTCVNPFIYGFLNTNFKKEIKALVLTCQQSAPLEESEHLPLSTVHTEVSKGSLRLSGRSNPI
SMILES,Ki ([2]; read-out: Ki) [nM],fold change (FC) [3],Ki ([4]; read-out: pKi (converted)) [nM],Ki ([5]; read-out: Ki) [nM],Ki ([5]; read-out: pKi (converted)) [nM],Ki ([6]; read-out: pKi (converted)) [nM],Selectivity ratio [7],Selectivity ratio [8],Selectivity ratio [9],EC50 [10] [nM],Intrinsic activity [11] [%],EC50 [12] [nM],Intrinsic activity [13] [%],EC50 [14] [nM],Intrinsic activity [15] [%],Intrinsic activity [17] [%],remaining at 0.5 h [19] [%],remaining at 2 h [21] [%],remaining at 6 h [22] [%],half-life [23] [h],other results
CCOC(=O)[C@H](CCc1ccccc1)N[C@@H](C)C(=O)N1[C@H](C(=O)O)C[C@@H]2CCC[C@@H]21,–,–,–,–,–,–,–,–,–,–,–,–,–,–,–,–,–,–,–,–,pIC50 [1]: 7.6
CC(C)C[C@H](NC(=O)[C@@H]1CCCNC(=N)NC(=O)NCCCCNC(=O)CCC(=O)N[C@@H](CCCNC(=N)N)C(=O)N[C@@H](Cc2c[nH]c3ccccc23)C(=O)N1)C(=O)N[C@@H](CCCNC(=N)N)C(=O)N[C@@H](Cc1ccc(O)cc1)C(N)=O,0.033,103,> 10000,> 10000,> 10000,> 1000,> 300000,> 300,> 90000,1,98,1.66,80,1,84,95,94,57,19,2.6,"Ki ([4]; sk-n-mc, read-out: Ki): > 10000 nM; Ki ([6]; read-out: Ki): > 3000 nM; EC50 [16]: 1.41 nM; Stability [18]: Stable; remaining at 1 h [20]: 87%; Stability [24]: Stable"
CC(C)C[C@H](NC(=O)[C@H](CCCNC(=N)NC(=O)NCCCCN)NC(=O)[C@H](Cc1c[nH]c2ccccc12)NC(=O)[C@H](CCCNC(=N)N)NC(=O)CCC(=O)O)C(=O)N[C@@H](CCCNC(=N)N)C(=O)N[C@@H](Cc1ccc(O)cc1)C(N)=O,2.1,1.6,> 10000,> 3000,> 3160,> 10000,> 4700,> 1400,> 4700,120,67,162,76,105,67,95,94,87,67,7.9,"Ki ([2]; read-out: pKi (converted)): 1.95 nM; Ki ([4]; sk-n-mc, read-out: Ki): > 10000 nM; EC50 [16]: 12 nM; remaining at 24 h [25]: 3%; Stability [24]: Stable"
CC(C)C[C@H](NC(=O)[C@H](CCCNC(=N)NC(=O)NCCCCN)NC(=O)[C@H](Cc1ccc(O)cc1)NC(=O)[C@H](CCCNC(=N)N)NC(=O)CCC(=O)O)C(=O)N[C@@H](CCCNC(=N)N)C(=O)N[C@@H](Cc1ccc(O)cc1)C(N)=O,13,2.6,> 10000,> 10000,> 10000,> 10000,> 7600,> 7600,> 7600,160,75,141,83,204,70,88,> 99,91,49,5.9,"Ki ([2]; read-out: pKi (converted)): 1.26 nM; Ki ([4]; sk-n-mc, read-out: Ki): > 10000 nM; EC50 [16]: 17 nM; remaining at 24 h [25]: 3%; Stability [24]: Stable"
CC(C)C[C@H](NC(=O)[C@@H]1CCCNC(=N)NC(=O)NCCCCNC(=O)CCC(=O)N[C@@H](CCCNC(=N)N)C(=O)N[C@@H](Cc2ccc(O)cc2)C(=O)N1)C(=O)N[C@@H](CCCNC(=N)N)C(=O)N[C@@H](Cc1ccc(O)cc1)C(N)=O,0.048,71,> 3160,> 10000,> 10000,> 1000,> 60000,> 200,> 60000,3.6,68,1.58,73,2.69,82,89,> 99,52,3,1.9,Ki ([2]; read-out: pKi (converted)): 0.0437 nM; Ki ([4]; read-out: Ki): > 3000 nM; Ki ([6]; read-out: Ki): > 3000 nM; Stability [18]: Stable; remaining at 1 h [20]: 85%; Stability [24]: Stable
